Assay results: patent publication US8435978B2, “Substituted sulfonamide compounds” (Gruenenthal GmbH, priority 2006, dated 2013)

Experiments:
[1] = test system: formalin-induced pain behavior; experiment: Formalin test in the mouse (phase 2, chronic pain component); type: in vivo; conditions: iv, 5 min. before formalin injection, observation 21 to 24 minutes after formalin
Method: The formalin test (Dubuisson, D. and Dennis, S. G., 1977, Pain, 4, 161-174) represents a model for both acute and chronic pain. By means of a single formalin injection into the dorsal side of a rear paw, a biphasic nociceptive reaction is induced in freely mobile test animals; the reaction is detected by observing three behaviour patterns which are clearly distinguishable from one another. The reaction is two-phase: phase 1=immediate reaction (duration up to 10 min., shaking of the paw, licking), phase 2=late reaction (after a rest phase; likewise shaking of the paw, licking; duration up to 60 min.). The 1st phase reflects a direct stimulation of the peripheral nocisensors with high spinal nociceptive input (acute pain phase); the 2nd phase reflects a spinal and peripheral hypersensitization (chronic pain phase). In the studies described here, the chronic pain component (phase 2) has been evaluated. Formalin in a volume of 20 μl and a concentration of 1% is administered subcutaneously into the dorsal side of the right rear paw of each animal. The specific changes in behavior, such as lifting, shaking or licking of the paw (score 3, Dubuisson & Dennis, 1977), are observed and recorded in the observation period of 21 to 24 minutes following the formalin injection. The behaviour of the animals after administration of the substance (n=10 per dose of substance) was compared with a control group which received vehicle (n=10). Based on the quantification of the pain behavior, the action of the substance in the formalin test was determined as the change in percent compared with the control. The ED50 calculations (ED50=mean effective dose) were carried out by regression analysis according to the method of Litchfield and Wilcoxon (Litchfield, J. T., Wilcoxon, J. J., 1949, J. Pharmacol. Exp. Ther. 96, 99-113). The time of administration before the formalin injection was chosen in dependence on the mode of administration of the compounds according to the invention (intravenous: 5 min.).

B1R receptor of the rat = target: T1, B1R receptor of the rat (Rattus norvegicus, UniProt P97583); experiment: Functional study on the bradykinin receptor 1 (B1R), FLIPR Ca2+ assay, rB1R cells; type: cell-based; conditions: agonist Des-Arg9-bradykinin 100 nM, % inhibition compared with the maximum achievable inhibition; for inhibition at 10 µM: CHO-K1, test substance 10 μM, read-out: B1R Antagonism, rat [10 μM] % Inhibition; for B1R Antagonism, rat [10 μM] % Inhibition: test substance 10 μM, rB1R CHO K1 cells
T1 construct: host or cells: CHO K1 cells (Chinese hamster ovary), stably transfected
T1 sequence (P97583 1-337): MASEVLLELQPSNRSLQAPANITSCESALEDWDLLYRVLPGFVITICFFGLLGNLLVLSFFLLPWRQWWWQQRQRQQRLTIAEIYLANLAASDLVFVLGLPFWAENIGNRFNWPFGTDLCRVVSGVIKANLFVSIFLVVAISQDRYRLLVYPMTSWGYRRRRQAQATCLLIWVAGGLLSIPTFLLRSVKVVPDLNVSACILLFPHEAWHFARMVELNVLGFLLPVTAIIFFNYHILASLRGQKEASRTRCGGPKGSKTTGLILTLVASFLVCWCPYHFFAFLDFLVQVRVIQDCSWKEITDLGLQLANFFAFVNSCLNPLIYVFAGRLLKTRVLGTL
Outline: (§1)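 FLIPR Ca2+ read-out (Fluo-4, peak fluorescence) in stably transfected CHO K1 cells. Compounds at 10 μM, then 10 min later agonist challenge: human B1R with Lys-Des-Arg9-bradykinin 0.5 nM, rat B1R with Des-Arg9-bradykinin 100 nM; reported as % activation or % of maximal inhibition.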

human B1R receptor = target: T2, human B1R receptor (Homo sapiens, UniProt P46663); experiment: Functional study on the bradykinin receptor 1 (B1R), FLIPR Ca2+ assay, hB1R cells; type: cell-based; conditions: agonist Lys-Des-Arg9-bradykinin 0.5 nM, % inhibition compared with the maximum achievable inhibition; for inhibition at 10 µM: CHO-K1, test substance 10 μM, read-out: B1R Antagonism, human [10 μM] % Inhibition; for B1R Antagonism, human [10 μM] % Inhibition: test substance 10 μM, hB1R CHO K1 cells
T2 construct: host or cells: CHO K1 cells (Chinese hamster ovary), stably transfected
T2 sequence (P46663 1-353): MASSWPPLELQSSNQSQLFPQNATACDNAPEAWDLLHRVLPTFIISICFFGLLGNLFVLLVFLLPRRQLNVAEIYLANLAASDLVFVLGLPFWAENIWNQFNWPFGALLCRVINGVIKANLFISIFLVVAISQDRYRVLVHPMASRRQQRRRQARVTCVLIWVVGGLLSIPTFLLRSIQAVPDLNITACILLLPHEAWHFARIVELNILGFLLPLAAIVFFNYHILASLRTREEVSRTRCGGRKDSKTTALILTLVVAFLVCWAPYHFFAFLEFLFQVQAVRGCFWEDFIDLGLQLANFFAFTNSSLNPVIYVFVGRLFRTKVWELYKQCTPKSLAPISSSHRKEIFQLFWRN
Outline: as §1

Molecule | inhibition at 10 µM (B1R receptor of the rat) [%] | inhibition at 10 µM (human B1R receptor) [%] | B1R Antagonism, rat [10 μM] % Inhibition (B1R receptor of the rat) [%] | B1R Antagonism, human [10 μM] % Inhibition (human B1R receptor) [%] | ED50 [1] [mg/kg]
COc1cc(C)c(S(=O)(=O)N2CCCCC2COCC(=O)N2CCC(N3CCN4CCCCC4C3)CC2)c(C)c1 (stereo not drawn) [Example 98, 1-(4-(dihydro-1H-pyrido[1,2-a]pyrazin-2(6H,7H,8H,9H,9aH)-yl)piperidin-1-yl)-2-((1-(4-methoxy-2,6-dimethylphenylsulfonyl)piperidin-2-yl)methoxy)ethanone] | 101 | 104 |  |  | 13.6
O=C(COCC1CCCN1S(=O)(=O)c1c(Cl)cc(Cl)cc1Cl)NCc1ccc(N2CCOCC2)cc1 (stereo not drawn) [Example 580, N-(4-morpholinobenzyl)-2-((1-(2,4,6-trichlorophenylsulfonyl)pyrrolidin-2-yl)methoxy)acetamide] | 88.5 | 39.1 |  |  | 
O=C(COCC1CCCCN1S(=O)(=O)c1c(Cl)cc(Cl)cc1Cl)NCc1ccc(N2CCOCC2)cc1 (stereo not drawn) [Example 581, N-(4-morpholinobenzyl)-2-((1-(2,4,6-trichlorophenylsulfonyl)piperidin-2-yl)methoxy)acetamide] | 76.3 | 27.5 |  |  | 
N-(3-(1H-benzo[d]imidazol-2-yl)propyl)-2-((1-(4-methoxy-2,6-dimethylphenylsulfonyl)piperidin-2-yl)methoxy)acetamide [Example 525] |  |  | 102.31 | 15.41 | 
N-(4-(dimethylamino)butyl)-2-((1-(2,4,6-trichlorophenylsulfonyl)pyrrolidin-2-yl)methoxy)acetamide [Example 294] |  |  | 100 | 105.91 | 

The next lines start with results.

inhibition at 10 µM (B1R receptor of the rat) [%] | inhibition at 10 µM (human B1R receptor) [%] | B1R Antagonism, rat [10 μM] % Inhibition (B1R receptor of the rat) [%] | B1R Antagonism, human [10 μM] % Inhibition (human B1R receptor) [%] | Molecule | ED50 [1] [mg/kg]
98.2 | 98 |  |  | COc1cc(C)c(S(=O)(=O)N2CCCCC2COCC(=O)N2CCN(C3CCN(C)CC3)CC2)c(C)c1.Cl.Cl (stereo not drawn) [Example 97, 2-((1-(4-methoxy-2,6-dimethylphenylsulfonyl)piperidin-2-yl)methoxy)-1-(4-(1-methylpiperidin-4-yl)piperazin-1-yl)ethanone dihydrochloride] | 13.3
98.3 | 104 |  |  | COc1cc(C)c(S(=O)(=O)N2CCCCC2COCC(=O)N(C)Cc2ccc(C3=NCCN3)cc2)c(C)c1.Cl (stereo not drawn) [Example 193, N-(4-(4,5-dihydro-1H-imidazol-2-yl)benzyl)-2-((1-(4-methoxy-2,6-dimethylphenylsulfonyl)piperidin-2-yl)methoxy)-N-methylacetamide hydrochloride] | 2.59
107 | 39.4 |  |  | COc1cc(C)c(S(=O)(=O)N2CCCC2COCC(=O)NCc2ccc(N3CCOCC3)cc2)c(C)c1 (stereo not drawn) [Example 579, 2-((1-(4-methoxy-2,6-dimethylphenylsulfonyl)pyrrolidin-2-yl)methoxy)-N-(4-morpholinobenzyl)acetamide] | 
 |  | 101.17 | 92.06 | N-(4-(2-(1H-benzo[d]imidazol-2-yl)ethyl)phenyl)-2-((1-(4-methoxy-2,6-dimethylphenylsulfonyl)pyrrolidin-2-yl)methoxy)acetamide [Example 472] | 
